Inconclusive results are not listed. Active and inactive are the calls of the source.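 Rule for the calls: active = Compounds that reduce signal, with fitted half-maximal dose at or under twice the top valid tested dose; inconclusive = Poor fit, or flat curve losing 30 to 70% of signal; inactive = Potency past limit, flat within 30%, or opposite direction.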

The nature of the first assay: HEK293T cell cytotoxicity, dose response, cytotoxicity control, ATP luminescence, cherry-pick samples (AID 687005). To be noted: HEK293T viability, ATP luminescence (CellTiter-Glo), 48 h; at 23.5 µM (top of the series). In general terms: In ATP-based viability assays light output follows the ATP content of the culture.
As for `CO[C@H]1CN(C)C(=O)c2cc(NC(=O)C3CCOCC3)ccc2OC[C@@H](C)NC[C@H]1C`, the activity change, negative = cytotoxicity was 41% (inactive).

For `N#Cc1ccc(-c2ccc3c(c2)[C@@H]2[C@@H](CCN2C(=O)Cc2ccccc2)[C@@H](CO)N3)cc1`, the activity change, negative = cytotoxicity was -19.6% (inactive).

`CO[C@@H]1CN(C)C(=O)c2cc(NC(=O)C3CCOCC3)ccc2OC[C@H](C)NC[C@@H]1C`: the activity change, negative = cytotoxicity was -2.94% (inactive).

For `C[C@@H]1CCCCO[C@@H](CN(C)CC2CCCCC2)[C@@H](C)CN([C@@H](C)CO)C(=O)c2cc(NS(=O)(=O)c3ccccc3)ccc2O1`, the activity change, negative = cytotoxicity was -40.3% (inactive).

For the compound `C/C=C/c1ccc([C@H]2[C@@H](C#N)N(S(=O)(=O)c3cccc(F)c3)[C@H]2CO)cc1`, the activity change, negative = cytotoxicity was 7.73% (inactive).

On to `C[C@H](CO)N1C[C@H](C)[C@@H](CN(C)C(=O)c2ccncc2)OCCCC[C@H](C)Oc2ccc(NC(=O)Cc3ccccc3)cc2C1=O`, for which the activity change, negative = cytotoxicity was -0.45% (inactive).

Consider `Cc1ccc(S(=O)(=O)N2C[C@@H](O)COC[C@H]3O[C@H](CC(=O)NCc4ccc5c(c4)OCO5)CC[C@@H]32)cc1`, for which the activity change, negative = cytotoxicity is -12.4% (inactive).

The same assay, now with this note: HEK293T viability, ATP luminescence (CellTiter-Glo), 48 h; at 26 µM (top of the series).
`CC(C)NC(=O)Nc1ccc2c(c1)CC(=O)N([C@@H](C)CO)C[C@@H](C)[C@H](CN(C)C(=O)Nc1ccc3c(c1)OCO3)O2`: the activity change, negative = cytotoxicity is 50.2% (inactive).

For `C[C@@H]1CCCCO[C@H](CN(C)Cc2ccncc2)[C@@H](C)CN([C@@H](C)CO)C(=O)c2cc(NC(=O)Nc3ccccc3)ccc2O1`, the activity change, negative = cytotoxicity is -7.38% (inactive).

With `CC(=O)c1cccc(NC(=S)NC2CCCCC2)c1`, the activity change, negative = cytotoxicity is -7.11% (inactive).

Turning to `Cc1ccc(NC(=O)C2CCC(=O)N2)cc1C` (stereo not drawn), the activity change, negative = cytotoxicity was -5.26% (inactive).

In the case of `COc1ccccc1-c1cnc2c(c1)C(=O)N([C@H](C)CO)C[C@@H](C)[C@H](CN(C)Cc1cncnc1)O2`, the activity change, negative = cytotoxicity was 28.4% (inactive).

With `CC=Cc1ccc2n(c1=O)C[C@H]1[C@H](CO)[C@@H](C(=O)N3CCc4ccccc4C3)N(C(=O)C3CC3)[C@@H]21` (mixture of isomers), the activity change, negative = cytotoxicity was -9.72% (inactive).

In the case of `CCC(=O)N1[C@H](C(=O)Nc2ccccc2)[C@@H](CO)[C@@H]2Cn3c(ccc(-c4ccncc4)c3=O)[C@@H]21`, the activity change, negative = cytotoxicity is 24.7% (inactive).

Consider `CNC[C@@H]1OCCCC[C@@H](C)Oc2ccc(NS(=O)(=O)c3ccc(Cl)cc3)cc2C(=O)N([C@H](C)CO)C[C@H]1C`, for which the activity change, negative = cytotoxicity is -31.3% (inactive).

Regarding `CC(C)NC(=O)N(C)C[C@H]1Oc2c(NS(=O)(=O)c3ccc(Cl)cc3)cccc2C(=O)N([C@@H](C)CO)C[C@@H]1C`, the activity change, negative = cytotoxicity was -20.3% (inactive).

For `C[C@@H]1CN([C@@H](C)CO)C(=O)c2cc(N(C)C)ccc2O[C@@H]1CN(C)C(=O)Nc1ccc(C(F)(F)F)cc1`, the activity change, negative = cytotoxicity was -29.4% (inactive).

Consider `Cc1cccc(C)c1NC(=S)NN(Cc1ccccc1)c1ccccc1`, for which the activity change, negative = cytotoxicity is 15.7% (inactive).

In the case of `C[C@H]1CN([C@@H](C)CO)C(=O)c2cc(NC(=O)CCN3CCOCC3)ccc2O[C@@H]1CN(C)Cc1ccc(C(=O)O)cc1`, the activity change, negative = cytotoxicity is 36.2% (inactive).

For `CN1[C@H](C(=O)N2CCc3ccccc3C2)[C@@H](CO)[C@@H]2Cn3c(ccc(-c4cccnc4)c3=O)[C@@H]21`, the activity change, negative = cytotoxicity was 7.82% (inactive).

Regarding `C[C@@H]1CN([C@H](C)CO)C(=O)CCCn2cc(nn2)CO[C@@H]1CN(C)C(=O)CCCN(C)C`, the activity change, negative = cytotoxicity was -5.89% (inactive).

Turning to `CC(C)NC(=O)Nc1ccc2c(c1)C(=O)N([C@@H](C)CO)C[C@H](C)[C@@H](CN(C)S(=O)(=O)c1cccs1)OCCCC[C@H](C)O2`, the activity change, negative = cytotoxicity was -17.5% (inactive).

In the case of `CCCNC(=O)Nc1ccc2c(c1)C(=O)N(C)C[C@@H](OC)[C@@H](C)CN(C(=O)CC)[C@H](C)CO2`, the activity change, negative = cytotoxicity was -2.92% (inactive).

For the compound `COCC(=O)Nc1ccc2c(c1)OC[C@@H](C)N(C(=O)Cc1cccnc1)C[C@H](C)[C@@H](OC)CN(C)C2=O`, the activity change, negative = cytotoxicity is -14.6% (inactive).

In the case of `COC(=O)C1=C(C)N(Cc2ccc(Cl)cc2)C(=S)NC1c1cccc(OC)c1` (stereo not drawn), the activity change, negative = cytotoxicity is -34.3% (inactive).

With `O=C(C[C@H]1C[C@@H]2c3cc(NC(=O)c4cccnc4)ccc3O[C@@H]2[C@@H](CO)O1)NCCc1ccccc1`, the activity change, negative = cytotoxicity was -44.8% (inactive).

Turning to `COc1ccc(NC(=O)N(C)C[C@H]2OCCCC[C@@H](C)Oc3ccc(NC(=O)c4ccccc4)cc3C(=O)N([C@@H](C)CO)C[C@H]2C)cc1`, the activity change, negative = cytotoxicity was 7.8% (inactive).

Turning to `O=C(CSc1ncnc2c1cnn2-c1ccccc1)Nc1ccc2c(c1)OCO2`, the activity change, negative = cytotoxicity is 2.1% (inactive).

As for `C[C@H](NC(=O)C[C@@H]1C=C[C@H](NC(=O)CN2CCOCC2)[C@@H](CO)O1)c1ccccc1`, the activity change, negative = cytotoxicity is 18.6% (inactive).

On to `O=C1CCC(C(=O)Nc2cccc3ccccc23)N1` (stereo not drawn), for which the activity change, negative = cytotoxicity was 25.1% (inactive).

`C/C=C/c1ccc([C@@H]2[C@@H](CNC(=O)c3ccccc3)N(C(C)=O)[C@H]2CO)cc1`: the activity change, negative = cytotoxicity was 13.1% (inactive).

As to `CC(=O)N[C@H]1CC[C@@H](CCNC(=O)C2CCC2)O[C@H]1CO`, the activity change, negative = cytotoxicity is 1.44% (inactive).

With `COc1cccc(NC(=S)NC(=O)Cc2ccc(Cl)cc2)c1`, the activity change, negative = cytotoxicity was -6.68% (inactive).

As to `Cc1cc(C)c(NC(=O)C2CCCCN2C)c(C)c1` (stereo not drawn), the activity change, negative = cytotoxicity is 10.1% (inactive).

For `CC(C)NC(=O)Nc1ccc2c(c1)C(=O)N([C@@H](C)CO)C[C@@H](C)[C@@H](CN(C)C(=O)NC(C)C)OCCCC[C@@H](C)O2`, the activity change, negative = cytotoxicity was 20.5% (inactive).

For `C[C@@H]1CN([C@@H](C)CO)C(=O)Cc2cc(NS(=O)(=O)c3ccccc3)ccc2O[C@@H]1CN(C)Cc1ccc(Cl)c(Cl)c1`, the activity change, negative = cytotoxicity was -71.5% (inactive).

As for `O=C(Cc1ccccc1)N[C@H]1C=C[C@@H](CC(=O)N2CCOCC2)O[C@@H]1CO`, the activity change, negative = cytotoxicity was -14.2% (inactive).

As for `CNC(=O)C[C@H]1CC[C@H]2[C@@H](COc3ccc(NC(=O)Nc4cccc(C#N)c4)cc3C(=O)N2C)O1`, the activity change, negative = cytotoxicity was 23.1% (inactive).

Consider `COCC(=O)NC[C@H]1N[C@H](CO)[C@@H]1c1ccc(C2=CCCC2)cc1`, for which the activity change, negative = cytotoxicity is 16.1% (inactive).

As to `Cc1cc(C)c2nc(N3CCN(C(=O)c4cccs4)CC3)sc2c1`, the activity change, negative = cytotoxicity was -19.8% (inactive).

As for `C[C@H](CO)N1C[C@H](C)[C@@H](CN(C)C(=O)Nc2cccc3ccccc23)Oc2c(cccc2N(C)C)C1=O`, the activity change, negative = cytotoxicity is 49.5% (inactive).

As for `O=C(NC[C@H]1[C@@H](c2ccccc2)[C@@H](CO)N1C(=O)C1CCC1)NC1CCCC1`, the activity change, negative = cytotoxicity is -38.9% (inactive).

For `COc1ccccc1CNC(=O)C[C@@H]1C[C@@H]2c3cc(NC(=O)Nc4ccccc4F)ccc3O[C@@H]2[C@H](CO)O1`, the activity change, negative = cytotoxicity was 15.8% (inactive).

Take `COc1ccc(CN(C)C[C@@H]2Oc3ccc(NC(=O)Nc4ccc(F)cc4)cc3CC(=O)N([C@H](C)CO)C[C@H]2C)cc1`: the activity change, negative = cytotoxicity is -7.45% (inactive).

For `O=C(C[C@H]1C[C@@H]2c3cc(NC(=O)CC4CC4)ccc3O[C@@H]2[C@@H](CO)O1)NCc1cccc(F)c1`, the activity change, negative = cytotoxicity is 35.8% (inactive).

Take `COc1ccc(NC(=O)Nc2ccc3c(c2)C(=O)N([C@@H](C)CO)C[C@@H](C)[C@H](CN(C)C(=O)Cc2ccccc2)OCCCC[C@H](C)O3)cc1`: the activity change, negative = cytotoxicity was -2.88% (inactive).

Turning to `COc1ccc(CN(C)C[C@@H]2OCCCC[C@@H](C)Oc3ccc(NC(=O)c4ccccc4)cc3C(=O)N([C@H](C)CO)C[C@@H]2C)cc1`, the activity change, negative = cytotoxicity is -11.1% (inactive).

In the case of `CCC(C(=O)Nc1c(C)cc(C)cc1C)N1CCCCCC1` (stereo not drawn), the activity change, negative = cytotoxicity was 18.8% (inactive).

Turning to `C[C@@H]1CN([C@H](C)CO)C(=O)c2cc(C#CC(C)(C)O)cnc2O[C@@H]1CN(C)Cc1cncnc1`, the activity change, negative = cytotoxicity was 35.1% (inactive).

Regarding `CC(C)CC#Cc1cnc2c(c1)C(=O)N([C@@H](C)CO)C[C@@H](C)[C@@H](CN(C)C(=O)c1cccc(F)c1)O2`, the activity change, negative = cytotoxicity was -19.3% (inactive).

On to `COc1ccccc1C(=O)Nc1ccc2c(c1)OC[C@H](C)N(C(C)=O)C[C@H](C)[C@H](OC)CN(C)C2=O`, for which the activity change, negative = cytotoxicity was -41.7% (inactive).

With `O=C(Cc1ccccc1)N[C@H]1C=C[C@@H](CC(=O)N2CCOCC2)O[C@H]1CO`, the activity change, negative = cytotoxicity is 8.54% (inactive).

Turning to `CC(C)NC(=O)N(C)C[C@@H]1OCCCC[C@H](C)Oc2ccc(NC(=O)c3ccccc3)cc2C(=O)N([C@H](C)CO)C[C@H]1C`, the activity change, negative = cytotoxicity was -12.5% (inactive).

For the compound `CCC(C)(C(=O)NC1CCCCC1)N(C(=O)C1CCC(=O)N1)c1ccccc1` (stereo not drawn), the activity change, negative = cytotoxicity was 0.147% (inactive).

The same assay, now with this note: HEK293T viability, ATP luminescence (CellTiter-Glo), 48 h; at 30 µM (top of the series).
Regarding `COC(=O)C1=C(C)N(CC(C)C)C(=S)NC1c1ccc(Cl)cc1` (stereo not drawn), the activity change, negative = cytotoxicity was -20.8% (inactive).

The assay is the same for the next values; noted with them: HEK293T viability, ATP luminescence (CellTiter-Glo), 48 h; at 35 µM (top of the series).
Turning to `Cc1ccc(NC(=O)C2(C)CCN2C(=O)CCC2CCCC2)cc1C` (stereo not drawn), the activity change, negative = cytotoxicity is -23.2% (inactive).

The assay is the same for the next values; noted with them: HEK293T viability, ATP luminescence (CellTiter-Glo), 48 h; at 38 µM (top of the series).
Take `Cc1ccc(NC(=O)C2(C)CCN2C(=O)CC2CCCC2)cc1` (stereo not drawn): the activity change, negative = cytotoxicity is -16.5% (inactive).

The same assay, now with this note: HEK293T viability, ATP luminescence (CellTiter-Glo), 48 h; at 42 µM (top of the series).
Regarding `Cc1ccc(C)c(NC(=O)C2(C)CCCN2C(=O)C(C)C)c1` (stereo not drawn), the activity change, negative = cytotoxicity is -23.6% (inactive).

For the origin of these results see PubChem BioAssay AID687005 (Broad Institute, 2013).
